Earlier results in patent US20230121528A1, “SALMONELLA-BASED DNA VACCINES IN COMBINATION WITH AN ANTIBIOTIC” (VAXIMM AG, priority 2020, published 2023).

Test system: glioblastoma
Conditions: glioblastoma patients

For “avastin: monoclonal antibody avastin targeting VEGF”, which survival benefit is on record?
The survival benefit was “only showed benefits in progression free survival, but not in overall survival”.
